Measurements: article PMC12381781, “Structural and functional insights into the selective inhibition of mutant tau aggregation by purpurin and oleocanthal in frontotemporal dementia” (Protein Science : A Publication of the Protein Society, 2025)
Entries after “also recorded” stand apart in the source; their conditions may differ.

Experiments:
R2R3 (P301L) tau peptide [1] = target: T1, R2R3 (P301L) tau peptide (Homo sapiens, UniProt P10636, P618L); experiment: Atomic force microscopy of R2R3 (P301L) aggregates; format: biochemical; conditions: compound 10 μM, 48 h
T1 sequence (P10636 592-653 P618L): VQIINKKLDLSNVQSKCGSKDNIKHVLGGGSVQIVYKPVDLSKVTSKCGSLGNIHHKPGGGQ
Method: (§1) Aggregates collected after 48 h of aggregation were processed for AFM analysis as described previously (Annadurai, Malina, Malohlava, et al., [2022]).

[2] = test system: Tau RD P301S FRET Biosensor cells; experiment: Biosensor cell seeding assay, aggregation products formed with compound (co-aggregation); format: cell-based; conditions: 100 nM transduced, 48 h
Method: Tau peptides were aggregated with or without PUR or OLC in a 7.4 pH aggregation buffer without ThT. After 48 h, the contents of each well were pooled to a final total volume of 120 μL. The concentration of the pooled Aggregation Reaction Products was measured using the Pierce™ BCA Protein Assay Kit (Thermo Fisher Scientific Inc., Cat. # 23225). The reaction products were standardized for cell transduction to a final concentration of 100 nM for both control and drug‐treated samples. The pooled aggregation mixture was sonicated using a Branson Ultrasonic™ Sonifier Cup Horns (Marshall Scientific, Hampton, NH, USA) at 30% amplitude (15 s ON and 15 s OFF for 1 min) to fragment larger aggregates into smaller ones, facilitating consistent transduction.
Tau RD P301S FRET Biosensor cells were plated at 5 × 10^3 cells per well in PhenoPlate 384‐well, black, optically clear flat‐bottom plates (Revvity; Part # 6057302) pre‐coated with 50 μg/mL Poly‐ᴅ‐Lysine (Sigma‐Aldrich, Cat. # P6407). After plating, cells were incubated for 30 min at room temperature to promote better cell spreading before returning the plates to the incubator.
The next day, cells were transduced with 100 nM of aggregation mixture, which were either: (i) prepared in the absence (control) or presence of 10 μM PUR or OLC for co‐aggregation studies (Figure 5), or (ii) prepared exclusively in the absence of compounds for post‐transduction treatment studies (Figure 6). The aggregation mixtures were premixed with 0.2 μL per well TurboFect™ Transfection Reagent (Thermo Fisher Scientific Inc., Cat. # R0533) in 10 μL Opti‐MEM™ (Thermo Fisher Scientific Inc., Cat. #11058021) and added to cells.
For co‐aggregation studies (Figure 5), cells were cultured for 48 h after transduction before processing for imaging. For post‐transduction treatment studies (Figure 6), cells were cultured for 24 h following transduction, then treated with PUR or OLC at concentrations ranging from 0 to 10 μM, and incubated for an additional 24 h.
In both experiments (Figures 5 and 6), cells were fixed after a total of 48 h with 2% paraformaldehyde (Electron Microscopy Services, Cat. #15714‐1 L) for 10 min at room temperature, washed once with 1× PBS, and stained with 10 μM Hoechst‐33342 nuclear dye (Invitrogen, Cat. #H21492) for 10–15 min. To preserve samples for imaging, 1% glycerol in deionized water was added to each well.
Cells were imaged on a Cell Voyager 7000S high‐content imaging system (Yokogawa, Tokyo, Japan) with a 20× objective. CFP/YFP inclusions of seeded tau were detected using a 488 nm laser line (Ex = 460–490 nm, Em = 500–550 nm), and Hoechst‐stained nuclei were detected using a 405 nm laser line (Ex = 360–400 nm, Em = 410–480 nm). At least 10–15 focal areas per well were imaged for each replicate. Image analysis was performed using Signals Image Artist (Revvity) to quantify the number of cells (Hoechst‐stained nuclei) and intracellular CFP/YFP inclusions. Total inclusions per well were normalized to cell confluence and are presented as normalized seeding for graphing.

R2R3 (P301L) tau peptide [3] = target: T1, R2R3 (P301L) tau peptide; experiment: ThT aggregation assay of monomeric R2R3 (P301L) peptide; format: biochemical; conditions: for ThT-stained aggregates, confocal imaging: R2R3 P301L, end of ThT assay
Method: The aggregation kinetics of tau peptides were monitored using a ThT assay. A 40 μL reaction mixture containing 15 μM ThT (Sigma‐Aldrich, Cat. # T3516‐5G) and 50 μM peptide in the absence (control) or presence of 0.1 μM, 1 μM, and 10 μM PUR or OLC was prepared on ice in aggregation buffer (20 mM Tris [pH 7.4], 100 mM NaCl, 1 mM ethylenediaminetetraacetic acid [EDTA]) containing 5 μM heparin (Sigma‐Aldrich, Cat. #H4784). dithiothreitol (DTT) was excluded to avoid its differential effects on the aggregation kinetics of tau peptides containing Cys291 or Cys322 and to prevent peroxide generation by redox‐active compounds like PUR, which can lead to oxidative artifacts and false‐positive inhibition signals, as reported in our previous study (Annadurai, Malina, Salmona, et al., [2022]). This mixture was then dispensed into a clear‐bottom, black 384‐well ViewPlate (Revvity, Waltham, MA, United States; Part # 6007460) and sealed with a TopSealA‐PLUS (Revvity) to prevent evaporation.
Aggregation was monitored using EnSpire Multimode Plate Reader (Revvity) at 37°C with constant agitation (1000 rpm). To minimize condensation, the upper heater temperature was set to 2°C higher than the lower heater temperature. ThT fluorescence (ThT—λ ex: 460–490 nm and λem: 500–550 nm) was recorded every 5–10 min for 48 h.
ThT fluorescence curves were fitted to a sigmoidal function in GraphPad Prism (version 10, San Diego, CA, USA) using the following equation:
Y=Top/1+expV50–X/Slope , where Y is the ThT fluorescence intensity, X is time (h), Top is the maximum fluorescence intensity, V50 is the time to reach 50% of Top, and Slope describes the steepness of the aggregation transition. Baseline fluorescence at the start of the measurements was relatively low across samples and was not separately fitted. In samples showing early increases in fluorescence, the aggregation trajectory was modeled directly without introducing an independent baseline parameter.
The V50 value obtained from each replicate was used as the aggregation t 1/2 for statistical analysis.
To evaluate the effect of compounds on the extent of aggregation, the AUC was calculated for each replicate ThT fluorescence curve using GraphPad Prism. AUC values were then normalized to the mean AUC of the untreated control group and expressed as “aggregation (% of control),” serving as an indirect and comparative measure of fibril formation.
Figure S11. Confocal imaging of ThT-stained aggregates formed in the presence of PUR and OLC (corresponding to Figure 3). At the end of the ThT aggregation assay, reaction mixtures containing WT or mutant R2R3 tau peptides (P301L, V287I, N279K), incubated in the absence (CTL) or presence of 10 µM PUR or OLC, were collected from assay wells, embedded in 0.05% low-melting agarose, and imaged. ThT fluorescence was acquired using a Yokogawa Cell Voyager 7000S high-content imaging system equipped with a 20× objective (Ex: 460–490 nm, Em: 500–550 nm) and analyzed with Signals Image Artist (Revvity). […] Scale bar: 20 μm.

R2R3 (N279K) tau peptide = R2R3 (N279K) tau peptide (Homo sapiens, UniProt P10636, N596K); experiment: Atomic force microscopy of R2R3 (N279K) aggregates; format: biochemical; conditions: compound 10 μM, 48 h
Chain of R2R3 (N279K) tau peptide (P10636 592-653 N596K): as the sequence (P10636 592-653 P618L) above, with N5K, L27P counted along it
Method: as §1

[4] = R2R3 N279K aggregated with 10 μM compound
[5] = R2R3 P301L aggregated with 10 μM compound
[6] = R2R3 V287I aggregated with 10 μM compound
[7] = R2R3 WT aggregated with 10 μM compound

SMILES	AFM morphology of aggregates (R2R3 (P301L) tau peptide [1])	intracellular seeding (CFP/YFP inclusions) by aggregation products [2, 4]	intracellular seeding (CFP/YFP inclusions) by aggregation products [2, 5]	intracellular seeding (CFP/YFP inclusions) by aggregation products [2, 6]	intracellular seeding (CFP/YFP inclusions) by aggregation products [2, 7]	remaining activity at 0.1 µM (R2R3 (P301L) tau peptide [3]; R2R3 P301L 50 μM, compound 0.1 μM, read-out: aggregation (% of control), AUC of ThT fluorescence) [%]	remaining activity at 10 µM (R2R3 (P301L) tau peptide [3]; R2R3 P301L 50 μM, compound 10 μM, read-out: aggregation (% of control), AUC of ThT fluorescence) [%]	ThT-stained aggregates, confocal imaging (R2R3 (P301L) tau peptide [3]; compound 10 μM)	AFM morphology of aggregates (R2R3 (N279K) tau peptide)	aggregation (% of control), AUC of ThT fluorescence (R2R3 (P301L) tau peptide [3]; R2R3 P301L 50 μM, compound 0.1 μM) [%]	aggregation (% of control), AUC of ThT fluorescence (R2R3 (P301L) tau peptide [3]; R2R3 P301L 50 μM, compound 10 μM)
O=C1c2ccccc2C(=O)c2c(O)c(O)cc(O)c21 [PUR, purpurin]	only sparse fibrils	abolished the formation of species capable of inducing intracellular seeding; also recorded: significantly reduced seeding	abolished the formation of species capable of inducing intracellular seeding; also recorded: significantly reduced seeding	abolished the formation of species capable of inducing intracellular seeding; also recorded: near‐complete inhibition of seeding	did not affect the seeding competency	47	< 10	marked reduction in ThT signal	no fibrillar or aggregated structures were detected	–	–
C/C=C(/C=O)[C@@H](CC=O)CC(=O)OCCc1ccc(O)cc1 [OLC, oleocanthal]	only sparse fibrils	abolished the formation of species capable of inducing intracellular seeding; also recorded: significantly reduced seeding	abolished the formation of species capable of inducing intracellular seeding; also recorded: significantly reduced seeding	abolished the formation of species capable of inducing intracellular seeding; also recorded: near‐complete inhibition of seeding	effectively abolishing intracellular seeding	–	–	marked reduction in ThT signal	no fibrillar or aggregated structures were detected	8	below 10%
